Experimental data reported in patent US12180187B2, “1-phenyl-5-azinylpyrazolyl-3-oxyalkyl acids and their use for controlling unwanted plant growth” (BAYER AKTIENGESELLSCHAFT, priority 2019, dated 2024).

Assays:
AVEFA = test: Pre-emergence action at 320 g/ha against AVEFA; assay type: in vivo; conditions: visual scoring after about 3 weeks vs untreated controls
Source text: (§1) b) Seeds of monocotyledonous and dicotyledonous weed plants and crop plants are placed in plastic or organic planting pots and covered with soil. The compounds of the invention, formulated in the form of wettable powders (WP) or as emulsion concentrates (EC), are then applied onto the surface of the covering soil as aqueous suspension or emulsion with addition of 0.5% additive at a water application rate of 600 l/ha (converted). After the treatment, the pots are placed in a greenhouse and kept under good growth conditions for the trial plants. After about 3 weeks, the effect of the preparations is scored visually in comparison with untreated controls as percentages. For example, 100% activity=the plants have died, 0% activity=like control plants. Tables 13 to 26 below show the effects of selected compounds of the general formula (I) on various harmful plants and at an application rate corresponding to 320 g/ha, which were obtained by the experimental procedure mentioned above.

DIGSA [1] = test: Pre-emergence action at 320 g/ha against DIGSA; assay type: in vivo, Digitaria sanguinalis; conditions: visual scoring after about 3 weeks vs untreated controls
Source text: as §1

ECHGC = test: Pre-emergence action at 320 g/ha against ECHGC; assay type: in vivo, Echinochloa crus-galli; conditions: visual scoring after about 3 weeks vs untreated controls
Source text: as §1

LOLRI [2] = test: Pre-emergence action at 320 g/ha against LOLRI; assay type: in vivo, Lolium rigidum; conditions: visual scoring after about 3 weeks vs untreated controls
Source text: as §1

SETVI [3] = test: Pre-emergence action at 320 g/ha against SETVI; assay type: in vivo, Setaria viridis; conditions: visual scoring after about 3 weeks vs untreated controls
In short: (§2)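 Effect rated visually (% vs untreated control) about 3 weeks after pre-emergence spraying of WP/EC formulation onto soil; spray carried 0.5% additive at 600 l/ha water.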

AMARE [4] = test: Pre-emergence action at 320 g/ha against AMARE; assay type: in vivo, Amaranthus retroflexus; conditions: visual scoring after about 3 weeks vs untreated controls
In short: as §2

MATIN [5] = test: Pre-emergence action at 320 g/ha against MATIN; assay type: in vivo, Tripleurospermum inodorum (Matricaria inodora); conditions: visual scoring after about 3 weeks vs untreated controls
In short: as §2

POLCO = test: Pre-emergence action at 320 g/ha against POLCO; assay type: in vivo, Fallopia convolvulus (Polygonum convolvulus); conditions: visual scoring after about 3 weeks vs untreated controls
In short: as §2

VIOTR = test: Pre-emergence action at 320 g/ha against VIOTR; assay type: in vivo, Viola tricolor; conditions: dosage 320 g/ha
In short: as §2

DIGSA [6] = test: Pre-emergence action against DIGSA, 1280 g/ha; assay type: in vivo, Digitaria sanguinalis; conditions: visual scoring after about 3 weeks vs untreated controls, 100% = plants have died, 0% = like control plants
In short: (§3)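 Sandy loam pots, seeds covered with soil; aqueous WP/EC spray on covering soil, 0.5% additive, 600 L/ha. Greenhouse growth, good conditions. Readout: visual % activity at ~3 weeks (0% = like control, 100% = dead).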

LOLRI [7] = test: Pre-emergence action against LOLRI, 1280 g/ha; assay type: in vivo, Lolium rigidum; conditions: visual scoring after about 3 weeks vs untreated controls, 100% = plants have died, 0% = like control plants
In short: as §3

POAAN [8] = test: Pre-emergence action against POAAN, 1280 g/ha; assay type: in vivo, Poa annua; conditions: visual scoring after about 3 weeks vs untreated controls, 100% = plants have died, 0% = like control plants
In short: as §3

SETVI [9] = test: Pre-emergence action against SETVI, 1280 g/ha; assay type: in vivo, Setaria viridis; conditions: visual scoring after about 3 weeks vs untreated controls, 100% = plants have died, 0% = like control plants
In short: as §3

AMARE [10] = test: Pre-emergence action against AMARE, 1280 g/ha; assay type: in vivo, Amaranthus retroflexus; conditions: scored visually after about 3 weeks vs untreated controls (100% = plants have died)
In short: as §3

MATIN [11] = test: Pre-emergence action against MATIN, 1280 g/ha; assay type: in vivo, Tripleurospermum inodorum (Matricaria inodora); conditions: scored visually after about 3 weeks vs untreated controls (100% = plants have died)
In short: as §3

STEME [12] = test: Pre-emergence action against STEME, 1280 g/ha; assay type: in vivo, Stellaria media; conditions: scored visually after about 3 weeks vs untreated controls (100% = plants have died)
In short: as §3

VERPE [13] = test: Pre-emergence action against VERPE, 1280 g/ha; assay type: in vivo, Veronica persica; conditions: scored visually after about 3 weeks vs untreated controls (100% = plants have died)
In short: as §3

ALOMY [14] = test: Post-emergence action against ALOMY, 1.28 kg/ha; assay type: in vivo, Alopecurus myosuroides; conditions: dosage 1280 g/ha, visual rating about 3 weeks after treatment vs untreated controls
In short: (§4)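 Post-emergence greenhouse spray, one-leaf stage (2–3 wk after sowing), sandy loam. WP/EC, aqueous + 0.5% additive, 600 L/ha water. Visual % activity vs untreated, ~3 wk after treatment; 100% = plants dead.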

DIGSA [15] = test: Post-emergence action against DIGSA, 1.28 kg/ha; assay type: in vivo, Digitaria sanguinalis; conditions: dosage 1280 g/ha, visual rating about 3 weeks after treatment vs untreated controls
In short: as §4

ABUTH = test: Post-emergence action against ABUTH, 1.28 kg/ha; assay type: in vivo, Abutilon theophrasti; conditions: dosage 1280 g/ha, visual rating about 3 weeks after treatment vs untreated controls (100% = plants died)
In short: as §4

KCHSC = test: Post-emergence action against KCHSC, 1.28 kg/ha; assay type: in vivo, Bassia scoparia; conditions: dosage 1280 g/ha, visual rating about 3 weeks after treatment vs untreated controls (100% = plants died)
Protocol: • a) Seeds of mono- and dicotyledonous weed plants are placed in plastic pots in sandy loam soil (twin sowing with one species each of mono- or dicotyledonous weed plants per pot), covered with soil and cultivated in a greenhouse under controlled growth conditions. 2 to 3 weeks after sowing, the test plants are treated at the one-leaf stage. The compounds of the invention, formulated in the form of wettable powders (WP) or as emulsion concentrates (EC), are applied to the green parts of the plants as aqueous suspension or emulsion with addition of 0.5% additive at a water application rate equivalent to 600 litres per hectare. After the test plants have been kept in the greenhouse under optimum growth conditions for about 3 weeks, the activity of the preparations is rated visually in comparison to untreated controls. For example, 100% activity=the plants have died, 0% activity=like control plants. As shown by the results, compounds of the general formula (I) of the invention, in post-emergence treatment, have very good herbicidal efficacy (90% to 100% herbicidal action) against harmful plants such as Abutilon theophrasti, Digitaria sanguinalis, Echinochloa crus-galli, Matricaria inodora, Poa annua, at an application rate of 1.28 kg of active substance per hectare.

MATIN [16] = test: Post-emergence action against MATIN, 1.28 kg/ha; assay type: in vivo, Tripleurospermum inodorum (Matricaria inodora); conditions: dosage 1280 g/ha, visual rating about 3 weeks after treatment vs untreated controls (100% = plants died)
In short: as §4

STEME [17] = test: Post-emergence action against STEME, 1.28 kg/ha; assay type: in vivo, Stellaria media; conditions: dosage 1280 g/ha, visual rating about 3 weeks after treatment vs untreated controls (100% = plants died)
In short: as §4

VERPE [18] = test: Post-emergence action against VERPE, 1.28 kg/ha; assay type: in vivo, Veronica persica; conditions: dosage 1280 g/ha, visual rating about 3 weeks after treatment vs untreated controls (100% = plants died)
In short: as §4

AMARE [19] = test: Post-emergence action against AMARE, 1.28 kg/ha; assay type: in vivo, Amaranthus retroflexus; conditions: dosage 1280 g/ha, visual rating about 3 weeks after treatment vs untreated controls (100% = plants died)
In short: as §4

ALOMY [20] = test: Pre-emergence action against ALOMY, 1280 g/ha; assay type: in vivo, Alopecurus myosuroides; conditions: visual scoring after about 3 weeks vs untreated controls, 100% = plants have died, 0% = like control plants
In short: as §3

ECHCG = test: Pre-emergence action against ECHCG, 1280 g/ha; assay type: in vivo, Echinochloa crus-galli; conditions: visual scoring after about 3 weeks vs untreated controls, 100% = plants have died, 0% = like control plants
In short: as §3

POAAN [21] = test: Post-emergence action against POAAN, 1.28 kg/ha; assay type: in vivo, Poa annua; conditions: dosage 1280 g/ha, visual rating about 3 weeks after treatment vs untreated controls
In short: as §4

ALOMY [22] = test: Pre-emergence action at 320 g/ha against ALOMY; assay type: in vivo, Alopecurus myosuroides; conditions: scored visually after about 3 weeks vs untreated controls (100% = plants have died)
In short: as §2

VERPE [23] = test: Pre-emergence action at 320 g/ha against VERPE; assay type: in vivo, Veronica persica; conditions: visual scoring after about 3 weeks vs untreated controls
In short: as §2

Row | SMILES | Pre-emergence action against DIGSA (DIGSA [6]) [%] | Pre-emergence action against LOLRI (LOLRI [7]) [%] | Pre-emergence action against POAAN (POAAN [8]) [%] | Pre-emergence action against SETVI (SETVI [9]) [%] | Pre-emergence action against AMARE (AMARE [10]) [%] | Pre-emergence action against MATIN (MATIN [11]) [%] | Pre-emergence action against STEME (STEME [12]) [%] | Pre-emergence action against VERPE (VERPE [13]) [%] | Post-emergence action against ALOMY (ALOMY [14]) [%] | Post-emergence action against KCHSC (KCHSC) [%] | Post-emergence action against MATIN (MATIN [16]) [%] | Post-emergence action against VERPE (VERPE [18]) [%] | Pre-emergence action against ALOMY (ALOMY [20]) [%] | further results
1 | O=C(O)C(F)Oc1nn(-c2ccccc2F)c(-c2ccc(F)nc2)c1Br (stereo not drawn) [VII-057-a] |  |  |  |  |  |  |  |  |  |  |  |  |  | Pre-emergence action against AVEFA in % (AVEFA): 80%; Pre-emergence action against DIGSA in % (DIGSA [1]): 100%; Pre-emergence action against ECHGC in % (ECHGC): 80%; Pre-emergence action against LOLRI in % (LOLRI [2]): 90%; Pre-emergence action against SETVI in % (SETVI [3]): 100%; Pre-emergence action against AMARE in % (AMARE [4]): 100%; Pre-emergence action against MATIN in % (MATIN [5]): 90%; Pre-emergence action against POLCO in % (POLCO): 80%; Pre-emergence action against VIOTR in % (VIOTR): 100%
2 | O=C(O)COc1nn(-c2ccc(F)cc2)c(-c2ccc(F)nc2)c1I [VII-069] | 100 | 90 | 100 | 100 | 100 | 90 | 100 | 100 | 100 | 90 | 90 | 100 |  | Post-emergence action against DIGSA (DIGSA [15]): 100%; Post-emergence action against ABUTH (ABUTH): 90%; Post-emergence action against STEME (STEME [17]): 90%
3 | N#CCCNC(=O)COc1nn(-c2ccc(F)cc2F)c(-c2ccc(F)nc2)c1Br [Example X-029] |  |  | 100 |  | 100 |  | 90 |  |  | 90 |  | 100 |  | Post-emergence action against ABUTH (ABUTH): 90%; Post-emergence action against AMARE (AMARE [19]): 90%
4 | N#CCCNC(=O)COc1nn(-c2ccccc2F)c(-c2ccc(F)nc2)c1Br [Example X-032] | 100 | 100 | 100 | 100 | 100 | 100 | 100 | 100 | 100 | 90 | 90 | 100 | 100 | Pre-emergence action against ECHCG (ECHCG): 100%; Post-emergence action against POAAN (POAAN [21]): 100%
5 | CONC(=O)COc1nn(-c2ccc(F)cc2F)c(-c2ccc(F)cn2)c1Br [II-004] | 100 | 90 | 100 |  |  |  |  |  | 100 | 90 |  | 100 | 100 | Post-emergence action against DIGSA (DIGSA [15]): 100%
6 | CCOC(=O)COc1nn(-c2ccc(F)cc2)c(-c2ccc(F)nc2)c1I [VII-102] | 100 | 100 | 100 | 100 | 90 | 90 | 90 | 100 | 100 | 90 | 100 | 100 | 90 | Pre-emergence action against ECHCG (ECHCG): 100%; Post-emergence action against POAAN (POAAN [21]): 100%; Post-emergence action against AMARE (AMARE [19]): 100%
7 | COC(=O)C(C)Oc1nn(-c2ccccc2F)c(-c2ccc(F)nc2)c1Br (stereo not drawn) [VII-060] |  |  |  |  |  |  |  |  |  |  |  |  |  | Pre-emergence action at 320 g/ha against ALOMY in % (ALOMY [22]): 100%; Pre-emergence action against AVEFA in % (AVEFA): 90%; Pre-emergence action against DIGSA in % (DIGSA [1]): 100%; Pre-emergence action against ECHGC in % (ECHGC): 90%; Pre-emergence action against LOLRI in % (LOLRI [2]): 100%; Pre-emergence action against SETVI in % (SETVI [3]): 90%; Pre-emergence action against AMARE in % (AMARE [4]): 100%; Pre-emergence action against MATIN in % (MATIN [5]): 90%; Pre-emergence action against POLCO in % (POLCO): 90%; Pre-emergence action against VERPE in % (VERPE [23]): 100%; Pre-emergence action against VIOTR in % (VIOTR): 100%
